According to patent US11304956B2, “Use of 7-bromo-5-(O-chlorophenyl)-3-propoxy-1,2-dihydro-3H-1,4-benzodiazepin-2-one for inhibition of neuropathic pain and seizures of different etiology” (priority 2016, dated 2022):

Key:
[1] = system: model of neuropathic pain in rats; assay: Model of neuropathic pain (sciatic nerve ligation), threshold of pain sensitivity by dolorimeter; format: in vivo, male Wistar rats; details: for Changes in the threshold of pain perception, regarding healthy limb: damaged vs healthy limb before administration (baseline); for Threshold of pain sensitivity, damaged limb / Threshold of pain sensitivity, healthy limb: day 14 after ligation, before administration (baseline), M±m, n=10; for Threshold of pain sensitivity 2 hours after compounds administration: damaged limb
Procedure: An evaluation of the antinociceptive action of the test compound (1) on a model of neuropathic pain was carried out on 50 male Wistar rats weighing 270-310 g. The model of neuropathic pain was reproduced by ligation of the sciatic nerve at the level of the upper third of the thigh at the level of the popliteal fossa higher than the site of its trifurcation by N. tibialis, N. peroneus and N. suralis (see Mironov A. N. et al. Guidelines for conducting preclinical studies of drugs. Part one.—Moscow 2012. p. 197-219). The development of the pathological process lasted 14 days. The degree of hyperalgesia was determined using a dolorimeter (Dolorimeter Baseline, USA) by determining the threshold of pain sensitivity (TPS)—the minimum pressure on the lower surface of the rat's foot (g/mm^2), which caused pain in the animal (vocalization and/or withdrawal of the foot). Each animal was given 5 attempts; the threshold value was taken with such a pressure force, which caused a positive response in at least one attempt. The threshold of pain sensitivity was compared on intact and damaged limbs on day 14 after ligation (pathology without treatment), as well as on the injured limb after 2 hours (peak of action) after the drugs administration. The test compound and the reference drug (ketorolac) were administered intragastrally (as gavage) once at doses of 0.5 and 3 mg/kg. Sciatic nerve ligation in animals caused the development of neuropathic pain syndrome, which manifested itself in behavioral reactions of the rat and lowering the threshold of pain sensitivity by an average of 44-48% (see Table 1). The analgesic effect of Compound 1 compared with ketorolac under the conditions of their intragastral administration on the model of neuropathic pain in rats (M±m, n=10, where n is the number of animals in the experiments) is shown in Table 1.

[2] = system: pentylenetetrazole-induced convulsions; assay: Pentylenetetrazole-induced seizures; format: in vivo, non-linear male mice; details: Mus musculus, sc; mice; pentylenetetrazole 120 mg/kg subcutaneously; interval (0.83-0.97) printed on the next line; read-out: Anticonvulsive activity (ED50), Pentylenetetrazole
Description: In many cases, the presence of anticonvulsant (antiepileptic) effect of the compounds correlates with analgesic properties on corresponding models of neuralgia. As a general step is a primary screening of new anticonvulsant compounds on rodents with the help of pentylenetetrazole test and MES (maximal electroshock seizures) as they have a qualitative difference in development and manifestations of seizures. It is believed that the compound ability to prevent the MES-induced seizures is connected with impulse spread inhibition throughout the central nervous system. It is believed that the ability to prevent the MES-induced seizures development indicates the potential efficacy of the compound in the preventing propagation of a pulse along the neural tissue (see Tompson E. Medicines. Bioscreening/Under the editorship of A. V. Stefanova.-K.: Avitsenna, 1998.—250 p.).
The experiments were performed on non-linear male mice weighing 19-29 g. Pentylenetetrazole was administered subcutaneously in the cervical region of the back. […]
For MES-induced seizures experimental animals were exposed to electric stimulation through the corneal electrodes (50 Hz, 50 mA for mice during 0.2 s). The number of animals with the maximum tonic extension of the hind limbs, which occurs in almost 100% of the animals in the control group, was calculated. […]

gastric mucosa = assay: Ulcerogenic effect, acute experiment (single intragastric dose); format: in vivo, rats; details: 3 hours; for Average score: 4-score scale; for Multiplicity of damage: number of ulcers per animal
Procedure: The disadvantage of most analgesics is the fact that they have ulcerogenic effect that interferes with their long-term use. We have studied this side effect of Compound 1 in acute and subchronic experiments. In the first scheme, the compound in the form of an aqueous suspension (Tween-80) was administered in single dose intragastrically to rats, which had previously been deprived of food for 16 hours with free access to water. After 3 hours, the animals were euthanized with a cervical dislocation, then, after dissection of the abdominal cavity, stomachs were ejected and washed in isotonic sodium chloride solution to take out the contents. Damage of stomach was determined visually. In the second scheme, the compound was administered intragastrically for 4 days, after that the extent of the damaging effect on the stomach was determined, as in the previous experiment.
Evaluation of ulcerogenic action was carried out on a 4-score scale:
0 score—no damage; 0.5 score—hyperemia (blood vessels overflow)
1 score—single minor lesions (1-3 point hemorrhages or small ulcers)
2 score—multiple (more than 3) lesions (erosions, pinpoint hemorrhages) or 1 large ulcer
3 score—significant and massive damages (erosions, hemorrhages) of the gastric mucosa with significant size (diameter up to 4 mm)
4 score—gross injuries (massive hemorrhages, erosions, perforations) that cover the entire surface of the gastric mucosa.
The average multiplicity index of damage to the gastric mucosa (the number of ulcers per animal) and the severity of the damage (in scores) were determined.
Compound 1 was administered over a wide dose range—in acute studies—50, 250, 500 and 1000 mg/kg. For the subchronic experiment, the compound was used at a dose of 50 mg/kg.

[3] = ED50 by analgesic effect (preliminary studies / literature data); format: in vivo; details: according to preliminary studies
Procedure: After oral administration of Compound 1 and ketorolac at a dose of 3 mg/kg (which is ED50 according to the literature data for ketorolac), the degree of analgesic effect of the compound exceeded the effect of reference drug both by strength and duration.
To determine the safety of this compound in a chronic trial during long-term administration, it was administered to rats for 28 days at a dose close to ED50 by analgesic effect (0.5 mg/kg).

[4] = system: acetic acid "writhing" test; details: intraperitoneal administration of acetic acid; earlier work of the applicants; cited from earlier work
[5] = 50 mg/kg single intragastric dose
[6] = 250 mg/kg single intragastric dose
[7] = 500 mg/kg single intragastric dose
[8] = 1000 mg/kg single intragastric dose

CCCOC1N=C(c2ccccc2Cl)c2cc(Br)ccc2NC1=O (centres unmarked) [Compound 1, 7-bromo-5-(o-chlorophenyl)-3-propoxy-1,2-dihydro-3H-1,4-benzodiazepin-2-one]
Changes in the threshold of pain perception, regarding healthy limb ([1]; 0.5 mg/kg group): −48.4 ± 4.6%
Threshold of pain sensitivity, damaged limb ([1]; 0.5 mg/kg group): 223.5 ± 20.1 g/mm^2
Threshold of pain sensitivity, healthy limb ([1]; 0.5 mg/kg group): 434.3 ± 13.4 g/mm^2
Threshold of pain sensitivity 2 hours after compounds administration ([1]; 0.5 mg/kg intragastrally once): 269.3 ± 19.4 g/mm^2
Changes in the threshold of pain perception, regarding healthy limb ([1]; 3 mg/kg group): −44.3 ± 2.9%
Threshold of pain sensitivity, damaged limb ([1]; 3 mg/kg group): 295.7 ± 29.9 g/mm^2
Threshold of pain sensitivity, healthy limb ([1]; 3 mg/kg group): 523.6 ± 28.1 g/mm^2
Threshold of pain sensitivity 2 hours after compounds administration ([1]; 3 mg/kg intragastrally once): 532.8 ± 47.1 g/mm^2
ED50 [2]: 0.91 mg/kg
Number of animals with lesions of the gastric mucosa, score 1 (gastric mucosa; [5]): 3
Number of animals with lesions of the gastric mucosa, score 2 (gastric mucosa; [5]): 0
Number of animals with lesions of the gastric mucosa, score 3 (gastric mucosa; [5]): 0
Number of animals with lesions of the gastric mucosa, score 4 (gastric mucosa; [5]): 0
Average score (gastric mucosa; [5]): 0.2 ± 0.13
Multiplicity of damage (gastric mucosa; [5]): 0.5 ± 0.34
Number of animals with lesions of the gastric mucosa, score 1 (gastric mucosa; [6]): 5
Number of animals with lesions of the gastric mucosa, score 2 (gastric mucosa; [6]): 2
Number of animals with lesions of the gastric mucosa, score 3 (gastric mucosa; [6]): 0
Number of animals with lesions of the gastric mucosa, score 4 (gastric mucosa; [6]): 0
Average score (gastric mucosa; [6]): 0.8 ± 0.25
Multiplicity of damage (gastric mucosa; [6]): 0.9 ± 0.31
Number of animals with lesions of the gastric mucosa, score 1 (gastric mucosa; [7]): 7
Number of animals with lesions of the gastric mucosa, score 2 (gastric mucosa; [7]): 3
Number of animals with lesions of the gastric mucosa, score 3 (gastric mucosa; [7]): 0
Number of animals with lesions of the gastric mucosa, score 4 (gastric mucosa; [7]): 0
Average score (gastric mucosa; [7]): 1.0 ± 0.21
Multiplicity of damage (gastric mucosa; [7]): 1.2 ± 0.25
Number of animals with lesions of the gastric mucosa, score 1 (gastric mucosa; [8]): 8
Number of animals with lesions of the gastric mucosa, score 2 (gastric mucosa; [8]): 3
Number of animals with lesions of the gastric mucosa, score 3 (gastric mucosa; [8]): 0
Number of animals with lesions of the gastric mucosa, score 4 (gastric mucosa; [8]): 0
Average score (gastric mucosa; [8]): 1.3±0.21
Multiplicity of damage (gastric mucosa; [8]): 2.0 ± 0.37
ED50 [3]: 0.5 mg/kg
Analgesic activity in the "writhing" test [4]: high analgesic activity
